These are literature values, as cited in US20190231742A1, “NUTRITIONAL AGENTS USED TO PREVENT AND TREAT HYPERSENSITIVITY AND OTHER ALLERGIC-TYPE DISORDERS” (priority 2017, published 2019).

For data set [1] the following is noted: oral administration of ~20 g; raised from ≤0.2 mM.
The conditions of data set [2]: Alzheimer's disease patient; increasing quantities on successive days.
For data set [3] the following is noted: taken by mouth; FIG. 3.

On to `CCCCCCCC(=O)OCC(COC(=O)CCCCCCC)OC(=O)CCCCCCC` [tricaprylin], for which the “plasma D-βOHB level” value in data set [1] was 0.5 to 0.7 mM.
On to `CC(O)CCOC(=O)CC(C)O` [KME, (R)-3-hydroybutyl (R)-3-hydroxybutyrate], for which the water solubility result is “somewhat water soluble”. For the same compound, the “time of peak blood D-βOHB level after ingestion” value in data set [2] is reported as “about 1 hour”. Besides, the “rise in the blood level of D-βOHB and AcAc with increasing oral amount (mg/kg body weight)” value in data set [3] is listed as “increases proportionately”.
